Assay results: US20130085105A1, “Transdermal Administration Of Peptides” (The Provost, Fellows and Scholars of the College of Holy …, priority 2010, published 2013)
Where two headings read alike, the source gives them in different places.

Legend:
[1] = In vitro transdermal permeation, diffusion cell, pig epidermis; assay type: in vitro ADME, domestic pigs
Procedure: The viable epidermal layer was removed from the flanks of freshly sacrificed four month-old female domestic pigs. The flank area of each animal was carefully shaved and the upper 200 μm of skin (Meyer, W., et al., Curr. Prob. Dermatol., 7: 39-52, 1978; de Jalón, et al., J. Control. Rel., 75:191-197, 2001) was harvested using an electric dermatome (Robbins Instruments, Chatham, N.J., U.S.A.). Pigskin epidermal specimens were frozen at −18° C. between layers of PBS-soaked tissue paper enclosed in aluminum foil for up to two weeks prior to use in in vitro permeation studies.
A custom made finite dosing diffusion cell (AGB Scientific, Dublin, Ireland, FIG. 1) based upon and modified from the Keshary-Chien type diffusion cell was used for in vitro permeation studies.
Three to five diffusion cells were used in each permeation experiment and monitoring was performed over a 48 hour period. The cells were linked in series to a thermostatically controlled circulation bath set at 35° C. to mimic human skin surface temperature. Each cell was placed on a stir-plate set at a defined stirring rate of 1,000 rpm. The surface area for permeation provided by each cell was 3.14 cm^2.
Data collected from each permeation study included:
1) the average maximum flux obtained in 48 hours (Jmax),
2) the total absorption characterized as the total weight of peptide delivered transdermally into the receiver compartment over a 48 hour period,
3) the lag time to detectable flux which was equivalent to the latest sampling time at which no peptide was detectable by HPLC analysis of the receiver solution, and
4) an equivalent 48-hour steady state flux was determined by obtaining the slope of the best-fit line for a plot of cumulative flux per unit area versus time (described by McDaid, D. M. et al., Int. J. Pharm., 133:71-83, 1996).
Fresh hairless mouse skin samples or fresh or freshly thawed pig skin samples were mounted onto the diffusion cell with the SC topmost and in contact with the donor system. A rubber or plastic ring was placed on top of the skin sample to secure it in position. The combination of the diffusion cell top, the skin and the rubber ring was securely fastened together by means of a threaded cap. A recorded volume of receiver solution was added to the receiver compartment and maintained at 35° C. The receiver solution was 60/40 (v/v) PBS/propylene glycol (pH 7.1). The propylene glycol fraction was used to increase the solubility of the somatostatin-fatty acid salts. Previous work reported by Morgan et al. (J. Pharm. Sci., 87:1213-1218, 1998) has shown that a 50/50 water/propylene glycol receptor solution had no detrimental effect on the barrier integrity of both hairless mouse and porcine skin.
The receiver solution was allowed to equilibrate at 35° C. for 30 minutes. The experiment was initiated by the application of 1 ml of donor solution containing approximately 5 mg free base peptide in DMSO to the skin surface followed by sealing of the donor compartment with Parafilm®. A narrow-bore hypodermic needle was used to withdraw 1 ml samples from the receiver compartment via the sampling port; at each sampling time, an equal volume of drug-free receiver solution was immediately added back to the receiver compartment. Samples were analyzed by HPLC.
HPLC determination of peptide content in the receiver solution along with the known surface area of skin used (3.14 cm^2) allowed for calculation of transdermal flux (in units of μg/cm^2/hr) for each time point. Panels 1 and 2 of FIG. 2 show flux profiles obtained for the oleate salts of Compound A and Compound B in DMSO which far exceeded the flux profiles for the myristate, octanoate, decanoate, linoleate, nonanote, acetate and laurate salts of Compound A as well as the acetate salt of Compound B in DMSO. […]

[2] = Pharmacokinetics of Compound A after i.v. infusion to healthy human volunteers (Chassard et al.); assay type: in vivo
Procedure: A number of basic equations exist for the prediction of drug plasma levels in humans obtained by transdermal delivery. In order to make use of these equations, basic human pharmacokinetic parameters are required for the drug in question. Chassard et al. (J. Endocrinol. Invest. 20(Supp. to no. 7):30-32, 1997) reported on the pharmacokinetics of Compound A after i.v. infusion of 7, 21 and 42 μg/Kg to healthy human volunteers (n=12) obtaining values as shown in Table 20.
The values obtained for the intermediate dose of 21 μg/Kg were used to determine the necessary input rate, i.e., steady state flux, required in humans to achieve therapeutic plasma levels as outlined by Lee et al. (Res. Comm. Mol. Path. Pharmacol., 85, 337-346, 1994) in their studies on melatonin. […] As described by Chatterjee et al. (Pharm. Res., 14:1058-1065, 1997), the following equation can be used to predict required delivery rates, assuming transdermal delivery can be treated as an intravenous infusion: […]

[3] = Calculation of required transdermal delivery rate in humans (Eqn. 10.5); conditions: human; for required steady-state transdermal flux: skin area of 20 cm^2, Cpss 1 ng/ml (Compound A), 0.5 ng/ml (Compound B, using Compound A parameters)
Procedure: The values obtained for the intermediate dose of 21 μg/Kg were used to determine the necessary input rate, i.e., steady state flux, required in humans to achieve therapeutic plasma levels as outlined by Lee et al. (Res. Comm. Mol. Path. Pharmacol., 85, 337-346, 1994) in their studies on melatonin. […] As described by Chatterjee et al. (Pharm. Res., 14:1058-1065, 1997), the following equation can be used to predict required delivery rates, assuming transdermal delivery can be treated as an intravenous infusion:
where K0 is the required zero order delivery rate to achieve a therapeutic steady state plasma concentration (Cpss). […] Thus, for a skin area of 20 cm^2, the required steady-state transdermal flux would be 0.45 μg/cm^2/hr. Assuming a therapeutic plasma level of 0.5 ng/ml for Compound B and utilizing the relevant Compound A parameters, a required steady-state flux of 0.23 μg/cm^2/hr was calculated for a skin area of 20 cm^2.

[4] = human, cited from earlier work
[5] = cited from earlier work
[6] = rabbits, iontophoresis; cited from earlier work
[7] = mice, topical with 1% N-decylmethylsulfoxide, within 2 hours of administration; cited from earlier work

## CC(C)[C@@H]1NC(=O)[C@H](CCCCN)NC(=O)[C@@H](Cc2c[nH]c3ccccc23)NC(=O)[C@H](Cc2ccc(O)cc2)NC(=O)[C@@H](NC(=O)[C@H](N)Cc2ccc3ccccc3c2)CSSC[C@@H](C(=O)N[C@H](C(N)=O)[C@@H](C)O)NC1=O [Compound A, D-2-Nal-c(Cys-Tyr-D-Trp-Lys-Val-Cys)-Thr-NH2]
[1]; from Jss across pig epidermis, 55/40/5 ethanol/water/cineole, patch area of 20 cm^2
  estimated daily systemic delivery across human skin: approximately 0.675 mg
[2]; 292 (ml/hr)/Kg×70 Kg
  CL for a 70 Kg human: 20,440 cm^3/hr
[2]; human, plasma, intravenous, 21 ug/kg, from Vss at 21 μg/Kg multiplied by 70 Kg
  Vd: 13 L
[3]; required Cpss=1 ng/ml, Eqn. 10.5
  required input rate (K0): 8.98 µg/h
[3]
  required steady-state transdermal flux: 0.45 μg/cm^2/hr
[4]; i.v. infusion 7 μg/Kg
  AUC: 21.2 ± 4.1 (ng/ml)/hr
  CL: 341 ± 62 (ml/hr)/Kg
  Kel: 0.87 ± 0.11 h⁻¹
  MRTinfusion: 42 ± 6 min
  Vss: 0.194 ± 0.041 L/kg
  t1/2: 48 ± 6 min
[4]; i.v. infusion 21 μg/Kg
  AUC: 74.3 ± 13.7 (ng/ml)/hr
  CL: 292 ± 58 (ml/hr)/Kg
  Kel: 0.69 ± 0.07 h⁻¹
  MRTinfusion: 48 ± 6 min
  Vss: 0.186 ± 0.044 L/kg
  t1/2: 60 ± 6 min
[4]; i.v. infusion 42 μg/Kg
  AUC: 180.6 ± 46.6 (ng/ml)/hr
  CL: 249 ± 72 (ml/hr)/Kg
  Kel: 0.43 ± 0.09 h⁻¹
  MRTinfusion: 54 ± 12 min
  Vss: 0.187 ± 0.049 L/kg
  t1/2: 96 ± 18 min

## CC[C@@H]1NC(=O)[C@H](CCCCN)NC(=O)[C@@H](Cc2c[nH]c3ccccc23)NC(=O)[C@H](Cc2ccc(O)cc2)NC(=O)[C@@H](NC(=O)[C@@H](Cc2ccccc2)NC(=O)CN2CCN(CCO)CC2)CSSC[C@@H](C(=O)N[C@H](C(N)=O)[C@@H](C)O)NC1=O [Compound B, [4-(2-hydroxyethyl)]-1-piperazinylacetyl-D-Phe-c(Cys-Tyr-D-Trp-Lys-Abu-Cys)-Thr-NH2]
[1]
  estimated daily systemic delivery across human skin: approximately 2.665 mg
[3]
  required steady-state transdermal flux: 0.23 μg/cm^2/hr

## CC(C(=O)O)c1ccc(N=[N+]=[N-])cc1 (stereo not drawn) [azidoprofen]
[5]; donor concentration 6 μmol cm-3
  flux through hairless mouse skin: 0.236 μmol cm-2 hr-1
[5]; donor concentration 15 μmol cm-3
  flux through hairless mouse skin: 0.649 μmol cm-2 hr-1

## C[C@@H](O)[C@@H]1NC(=O)[C@H](CCCCN)NC(=O)[C@@H](Cc2c[nH]c3ccccc23)NC(=O)[C@H](Cc2ccccc2)NC(=O)[C@@H](NC(=O)[C@H](N)Cc2ccccc2)CSSC[C@@H](C(=O)N[C@H](CO)[C@@H](C)O)NC1=O [octreotide, D-Phe-c(Cys-Phe-D-Trp-Lys-Thr-Cys)-Thr-ol]
[6]
  apparent bioavailability: approximately 8%
  therapeutic plasma concentration throughout the iontophoretic episode: greater than 1 ng/ml
[7]
  plasma levels of peptide: > 8 ng/mL
